For this experiment, the target named is T1, indoleamine 2, 3-dioxygenase (IDO1) (Homo sapiens, UniProt P14902).
T1 construct: human peripheral blood mononuclear cells (PBMC) (PB003F; host or cells: human PBMC stimulated with IFN-gamma and LPS
T1 sequence (P14902 whole entry): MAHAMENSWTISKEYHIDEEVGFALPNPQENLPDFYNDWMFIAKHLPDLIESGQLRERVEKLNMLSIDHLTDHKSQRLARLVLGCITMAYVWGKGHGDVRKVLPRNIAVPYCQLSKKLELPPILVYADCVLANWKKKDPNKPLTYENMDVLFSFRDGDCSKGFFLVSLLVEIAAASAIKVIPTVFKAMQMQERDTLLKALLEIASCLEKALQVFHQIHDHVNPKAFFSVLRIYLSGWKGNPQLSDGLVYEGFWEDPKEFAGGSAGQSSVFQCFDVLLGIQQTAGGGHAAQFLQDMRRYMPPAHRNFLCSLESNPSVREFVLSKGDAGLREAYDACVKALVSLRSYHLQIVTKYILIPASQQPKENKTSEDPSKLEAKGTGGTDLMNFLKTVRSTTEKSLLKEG
Put plainly: PBMC IDO1 assay (kynurenine detection via mass spectrometry). It is filed as cell-based. As to conditions: human PBMC stimulated with IFN-γ and LPS, 2 days, kynurenine by mass spectrometry; read-out: IDO1 PBMC pIC50 (converted). The method, boiled down:
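Kynurenine output, read by RapidFire mass spectrometry as a ratio to internal standard, reflected IDO1 activity in human PBMCs induced with 100 ng/ml IFN-γ plus 50 ng/ml LPS and dosed with compound (11 points, 3-fold) over 2 days. Cytotoxicity was tracked by CellTiter-Glo; XC50 values came from Hill-slope fits.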
Consider `CC(C)OC(=O)N1CCC(CC(NC(=O)c2ccc(Cl)cc2)c2ccccc2)CC1` (stereo not drawn) [Example 103, isopropyl 4-(2-(4-chlorobenzamido)-2-phenylethyl)piperidine-1-carboxylate], for which the IC50 is 25.1 nM. With `O=C(NC(CC1CCN(C(=O)Oc2ccccc2)CC1)c1ccccc1)c1ccc(Cl)cc1` (stereo not drawn) [Example 104, phenyl 4-(2-(4-chlorobenzamido)-2-phenylethyl)piperidine-1-carboxylate], the IC50 is 25.1 nM. The value for `O=C(NC(CC1CCN(C(=O)OCC2CC2)CC1)c1ccccc1)c1ccc(Cl)cc1` (stereo not drawn) [Example 105, cyclopropylmethyl 4-(2-(4-chlorobenzamido)-2-phenylethyl)piperidine-1-carboxylate] was 25.1 nM. The value for `CCc1ccc(C(=O)NC(CC2CCN(C(=O)OC(C)(C)C)CC2)C2CCCCC2)s1` (stereo not drawn) [Example 106, tert-butyl 4-(2-cyclohexyl-2-(5-ethylthiophene-2-carboxamido)ethyl)piperidine-1-carboxylate] was 25.1 nM.

In the case of `CC(C)(C)OC(=O)N1CCC(CC(NC(=O)c2ccc(F)cc2)c2ccccc2)CC1` (stereo not drawn) [Example 107, tert-butyl 4-(2-(4-fluorobenzamido)-2-phenylethyl)piperidine-1-carboxylate], the IC50 was 31.6 nM. The value for `CCOC(=O)N1CCC(CC(NC(=O)c2ccc(F)cc2)C2CC2)CC1` (stereo not drawn) [Example 108, ethyl 4-(2-cyclopropyl-2-(4-fluorobenzamido)ethyl)piperidine-1-carboxylate] was 31.6 nM.

For the molecule `COc1ccc(C(=O)NC(CC2CCN(C(=O)OC(C)(C)C)CC2)c2ccccc2)cc1F` (stereo not drawn) [Example 109, tert-butyl 4-(2-(3-fluoro-4-methoxybenzamido)-2-phenylethyl)piperidine-1-carboxylate], the IC50 is 31.6 nM. The same measure for `CC(C)(C)OC(=O)N1CCC(CC(NC(=O)c2ccc(C(F)(F)F)cc2)c2ccccc2)CC1` (stereo not drawn) [Example 110, tert-butyl 4-(2-phenyl-2-(4-(trifluoromethyl)benzamido)ethyl)piperidine-1-carboxylate]: 31.6 nM; for `COc1ccc(C(CC2CCN(C(=O)OC(C)(C)C)CC2)NC(=O)c2ccc(SC)cc2)cn1` (stereo not drawn) [Example 111, tert-butyl 4-(2-(6-methoxypyridin-3-yl)-2-(4-(methylthio)benzamido)ethyl)piperidine-1-carboxylate]: 31.6 nM. On to `CCN(CC)c1nnc(C(CC2CCN(C(=O)OC(C)(C)C)CC2)NC(=O)c2ccc(F)cc2)o1` (stereo not drawn) [Example 112, tert-butyl 4-(2-(5-(diethylamino)-1,3,4-oxadiazol-2-yl)-2-(4-fluorobenzamido)ethyl)piperidine-1-carboxylate], for which the IC50 is 31.6 nM. The same measure for `COCCN(C)c1nnc(C(CC2CCN(C(=O)OC(C)(C)C)CC2)NC(=O)c2ccc(Cl)s2)o1` (stereo not drawn) [Example 113, tert-butyl 4-(2-(5-chlorothiophene-2-carboxamido)-2-(5-((2-methoxyethyl)(methyl)amino)-1,3,4-oxadiazol-2-yl)ethyl)piperidine-1-carboxylate]: 31.6 nM.

Take `C#CCOc1ccc(C(=O)NC(CC2CCN(C(=O)OC(C)(C)C)CC2)c2ccccc2)cc1F` (stereo not drawn) [Example 114, tert-butyl 4-(2-(3-fluoro-4-(prop-2-yn-1-yloxy)benzamido)-2-phenylethyl)piperidine-1-carboxylate]: the IC50 was 31.6 nM. The same measure for `CC(C)(C)OC(=O)N1CCC(CC(NC(=O)c2ccc(Cl)s2)C2CCCC2)CC1` (stereo not drawn) [Example 115, tert-butyl 4-(2-(5-chlorothiophene-2-carboxamido)-2-cyclopentylethyl)piperidine-1-carboxylate]: 31.6 nM; for `CC(C)(C)OC(=O)N1CCC(CC(NC(=O)c2ccc(F)s2)C2CCCC2)CC1` (stereo not drawn) [Example 116, tert-butyl 4-(2-cyclopentyl-2-(5-fluorothiophene-2-carboxamido)ethyl)piperidine-1-carboxylate]: 31.6 nM. The same measure for `O=C(NC(CC1CCN(C(=O)OCc2ccccc2)CC1)c1ccccc1)c1ccc(Cl)cc1` (stereo not drawn) [Example 117, benzyl 4-(2-(4-chlorobenzamido)-2-phenylethyl)piperidine-1-carboxylate]: 31.6 nM; for `CCc1ccc(C(=O)NC(CC2CCN(C(=O)OC(C)(C)C)CC2)c2ccccc2)cc1` (stereo not drawn) [Example 118, tert-butyl 4-(2-(4-ethylbenzamido)-2-phenylethyl)piperidine-1-carboxylate]: 31.6 nM; for `C=Cc1ccc(C(=O)NC(CC2CCN(C(=O)OC(C)(C)C)CC2)c2ccccc2)cc1` (stereo not drawn) [Example 119, tert-butyl 4-(2-phenyl-2-(4-vinylbenzamido)ethyl)piperidine-1-carboxylate]: 31.6 nM. Take `CCOC(=O)N1CCC(CC(NC(=O)c2ccc(F)cc2)c2ccccc2)CC1` (stereo not drawn) [Example 120, ethyl 4-(2-(4-fluorobenzamido)-2-phenylethyl)piperidine-1-carboxylate]: the IC50 is 39.8 nM. The value for `O=C(NC(CC1CCN(C(=O)Oc2ccccc2)CC1)c1ccccc1)c1ccc(F)cc1` (stereo not drawn) [Example 121, phenyl 4-(2-(4-fluorobenzamido)-2-phenylethyl)piperidine-1-carboxylate] was 39.8 nM; that for `CCN(CC)c1ccc(C(CC2CCN(C(=O)OC(C)(C)C)CC2)NC(=O)c2ccc(F)cc2)cn1` (stereo not drawn) [Example 122, tert-butyl 4-(2-(6-(diethylamino)pyridin-3-yl)-2-(4-fluorobenzamido)ethyl)piperidine-1-carboxylate] was 39.8 nM.

For the molecule `COc1ccc(C(=O)N[C@@H](CC2CCN(C(=O)OC(C)(C)C)CC2)c2ccccc2)cn1` [Example 123, (S)-tert-butyl 4-(2-(6-methoxynicotinamido)-2-phenylethyl)piperidine-1-carboxylate], the IC50 was 39.8 nM. The value for `CC(C)c1ccc(C(=O)NC(CC2CCN(C(=O)OC(C)(C)C)CC2)c2ccccc2)s1` (stereo not drawn) [Example 124, tert-butyl 4-(2-(5-isopropylthiophene-2-carboxamido)-2-phenylethyl)piperidine-1-carboxylate] was 39.8 nM; that for `CC(C)COC(=O)N1CCC(CC(NC(=O)c2ccc(Cl)cc2)c2ccccc2)CC1` (stereo not drawn) [Example 125, isobutyl 4-(2-(4-chlorobenzamido)-2-phenylethyl)piperidine-1-carboxylate] was 39.8 nM.

As for `CC(C)(C)OC(=O)N1CCC(CC(NC(=O)c2ccc(Br)cc2)C2CCCC2)CC1` (stereo not drawn) [Example 126, tert-butyl 4-(2-(4-bromobenzamido)-2-cyclopentylethyl)piperidine-1-carboxylate], the IC50 is 39.8 nM.

On to `CCNc1nnc(C(CC2CCN(C(=O)OC(C)(C)C)CC2)NC(=O)c2ccc(Cl)s2)o1` (stereo not drawn) [Example 127, tert-butyl 4-(2-(5-chlorothiophene-2-carboxamido)-2-(5-(ethylamino)-1,3,4-oxadiazol-2-yl)ethyl)piperidine-1-carboxylate], for which the IC50 was 39.8 nM. The value for `CC(C)(C)OC(=O)N1CCC(CC(NC(=O)c2csc(Cl)c2)c2ccccc2)CC1` (stereo not drawn) [Example 128, tert-butyl 4-(2-(5-chlorothiophene-3-carboxamido)-2-phenylethyl)piperidine-1-carboxylate] was 39.8 nM. For the molecule `CC(C)(C)OC(=O)N1CCC(C[C@@H](CCN2CCOCC2)NC(=O)c2ccc(Cl)s2)CC1` [Example 129, (S)-tert-butyl 4-(2-(5-chlorothiophene-2-carboxamido)-4-morpholinobutyl)piperidine-1-carboxylate], the IC50 is 39.8 nM. The value for `Cc1ccc(C(=O)NC(CC2CCN(C(=O)OC(C)(C)C)CC2)c2ccccc2)cc1` (stereo not drawn) [Example 130, tert-butyl 4-(2-(4-methylbenzamido)-2-phenylethyl)piperidine-1-carboxylate] was 50.1 nM; that for `CC(C)(C)OC(=O)N1CCC(CC(NC(=O)c2cccs2)c2ccccc2)CC1` (stereo not drawn) [Example 131, tert-butyl 4-(2-phenyl-2-(thiophene-2-carboxamido)ethyl)piperidine-1-carboxylate] was 50.1 nM; that for `CC(C)(C)OC(=O)N1CCC(CC(NC(=O)c2ccc(F)cc2)c2ccc(OC3CCCCC3)nc2)CC1` (stereo not drawn) [Example 132, tert-butyl 4-(2-(6-(cyclohexyloxy)pyridin-3-yl)-2-(4-fluorobenzamido)ethyl)piperidine-1-carboxylate] was 50.1 nM. `CC(C)(C)OC(=O)N1CCC(CC(NC(=O)c2ccc(C3CC3)c(F)c2)c2ccccc2)CC1` (stereo not drawn) [Example 133, tert-butyl 4-(2-(4-cyclopropyl-3-fluorobenzamido)-2-phenylethyl)piperidine-1-carboxylate]: the IC50 is 50.1 nM. In the case of `COC(=O)N1CCC(CC(NC(=O)c2ccc(Cl)cc2)c2ccccc2)CC1` (stereo not drawn) [Example 134, methyl 4-(2-(4-chlorobenzamido)-2-phenylethyl)piperidine-1-carboxylate], the IC50 is 50.1 nM. The same measure for `CC(C)(C)OC(=O)N1CCC(CC(NC(=O)c2ccc(Cl)cc2)C2CCCCC2)CC1` (stereo not drawn) [Example 135, tert-butyl 4-(2-(4-chlorobenzamido)-2-cyclohexylethyl)piperidine-1-carboxylate]: 50.1 nM; for `Cc1ccc(C(=O)NC(CC2CCN(C(=O)C(F)(F)c3ccccn3)CC2)c2ccccc2)s1` (stereo not drawn) [Example 136, N-(2-(1-(2,2-difluoro-2-(pyridin-2-yl)acetyl)piperidin-4-yl)-1-phenylethyl)-5-methylthiophene-2-carboxamide]: 50.1 nM. The same measure for `Cc1ccc(C(=O)NC(CC2CCN(c3ccccc3)CC2)c2ccccc2)s1` (stereo not drawn) [Example 137, 5-methyl-N-(1-phenyl-2-(1-phenylpiperidin-4-yl)ethyl)thiophene-2-carboxamide]: 50.1 nM. The same measure for `CC(C)(C)OC(=O)N1CCC(CC(NC(=O)c2ccccc2)c2ccccc2)CC1` (stereo not drawn) [Example 138, tert-butyl 4-(2-benzamido-2-phenylethyl)piperidine-1-carboxylate]: 63.1 nM.

The values are drawn from patent US20210078988A1, “MODULATORS OF INDOLEAMINE 2,3-DIOXYGENASE” (GLAXOSMITHKLINE INTELLECTUAL PROPERTY DEVELOPMENT LIMITED, priority 2017, published 2021).
